# Measurements as given in patent US20020114854A1, “Chinese herb medicine composition for cancer prophylaxis and therapy” (priority 2001, published 2002).
# Tests used:
# Assay type in all cases: cell-based
# [1] = system: bladder cancer cell strain Bladder-3; test: survival rate of bladder cancer cell strain Bladder-3 (CTAQ cell activity); set-up: dose or concentration left out as unconfirmed; settings: treated over 48 hours
# [2] = system: ovary cancer cell strain OC-117; test: survival rate of ovary cancer cell strain OC-117 (CTAQ cell activity); settings: 10 p (20 mg/ml) cis-Platine, treated over 48 hours
# [3] = system: cervical cancer cell strain CC-135; test: survival rate of cervical cancer cell strain CC-135 (CTAQ cell activity); set-up: dose or concentration left out as unconfirmed; settings: 10 p, 1.0 p or 0.1 p cis-Platine, treated 24 hours
# [4] = system: esophagus cancer cell strain CE-81; test: survival rate of esophagus cancer cell strain CE-81 (CTAQ cell activity, OD 492 nm); set-up: dose or concentration left out as unconfirmed; settings: treated 96 hours
# Description: Regarding to the cell strain culture in following embodiments, the culture solution of Ham's F 12/DMEM (v/v 1:1) including 10% (v/v) fetus cattle serum (FCS) and antibiotics (100 μg/ml streptomycin, 100 IU/ml penicillin, 1 μg/ml amphotericin) is used for cultivating all cell strains at 37° C., 5% CO2. When the cell grows to 80% full, the cell is washed down by Trypsin-EDTA to do the sub-culture. For the sub-culture, the cell is rinsed by HBSS first, washed down by Trypsin-EDTA, and centrifugated at 1000 rpm, 25° C. for 10 minutes. Sequentially, the cell is diluted by four times culture solution to be continuously cultivated. In addition, the sub-culture is done once per week. […]
# The esophagus cancer cell strain, CE-81, is washed down by Trypsin-EDTA, centrifugated, and diluted to a cell concentration of 10^6 cells/ml by FCS-free culture solution. […] After different treating time, the cell strain CE-81 is added […] cell activity detecting agent CTAQTM, and the cell activity is detected at OD 492 nm by multiple frequency scanner. […] Thus, the survival rate of cell (%) is obtained via comparing the determined value difference between after and before adding CTAQ with the standard curve by intercalation.
compound,measurement,setting,value
[NH2][Pt]([NH2])([Cl])[Cl] [cis-Platine],inhibition effect on Bladder-3 (in words),[1],significant inhibition effect
same,survival rate of OC-117,[2],below 20%
same,survival rate of CC-135,[3],about 50%
same,survival rate of CE-81,[4],about 60%
